The values below come from patent US20220362386A1, “LIQUID COMPOSITIONS COMPRISING A LEVODOPA AMINO ACID CONJUGATE AND USES THEREOF” (NeuroDerm, Ltd., priority 2019, published 2022).

Series [1] can be described thus: LD-Arg, LD-Lys and LD-Tyr formulations of Experimental Example 12, physical stability (Tables 35-41). The format is physicochemical. The conditions noted are these: for Physical Stability: room temperature overnight. On the procedure:
Formulations as described in the tables below were prepared by adding a CD solution and dissolving all ingredients together. The CD for the LD-Arg formulation was prepared as follows: WFI was added to a bottle, after which Tween® 80 and sodium bisulfite were added, stirred to dissolution, and heated to 60° C. CD was added, stirred for 1-2 minutes to achieve homogenization. Finally, L-Arginine was added, the bottle was flushed with nitrogen, tightly closed and stirred 15 min. Dissolution was verified and the preparation was allowed to cool to ambient temperature. The pH was measured, and the preparation was transferred to a measurement bottle, where the volume was completed to the predefined final volume by adding WFI. The preparation was then filtered through sterile 0.22 μm nylon filter, transferred to 20 ml vials, after which nitrogen was purged into the headspace and the vials were frozen at −20° C. until use.
The CD solution for the LD-Tyr and LD-Lys formulations was prepared as follows: WFI was added to a bottle. Tween® 80 and sodium bisulfite were added, stirred to dissolution and heated to 60° C. CD was added, and stirred for 1-2 minutes to achieve homogenization. NaOH was added, after which the bottle was washed with nitrogen, closed tightly and stirred for 15 minutes. Dissolution was verified and the preparation was allowed to cool to ambient temperature. The pH was measured, and preparation was transferred to a measurement bottle, in which the volume was completed to final predefined volume by adding WFI. The preparation was then filtered through a sterile 0.22 μm nylon filter, transferred to 20 ml vials, after which nitrogen was purged into headspace and the vials were frozen at −20° C. until use.

The conditions of series [2]: 0 weeks.
Method: It is noted that the recovery % compared the amount of any given material as measured at t=28 h (or any other presented value) compared to the amount of that material, at measured at t=0.
Another series relates to Caco-2 cells. As to the kind of experiment: in vitro. To be noted: Caco-2.
The mark [3] stands for this setting: t = 12 days, LD-Tyr 37.0%, CD 0.75%, L-Arginine 6.00, NaOH 0, TRIS 13, pH 8.14.
The mark [4] stands for this setting: t = 14 days, LD-Tyr 44.0%, CD 0.75%, L-Arginine 25.70, NaOH 0, TRIS 0, pH 8.34.
The mark [5] stands for this setting: t = 26 days, LD-Tyr 37.0%, CD 0.75%, L-Arginine 6.00, NaOH 0, TRIS 12.124, pH 8.12.
Where [6] appears, read: t = 26 days, LD-Tyr 44.0%, CD 0.75%, L-Arginine 6.76, NaOH 0, TRIS 13.726, pH 8.08.

Structures are written as SMILES. Structures can show the parent of a compound that is named as a salt. Non-standard residues stand in square brackets, D forms with d. Residues, ends and D or L forms follow the SMILES beside them. Dopa = N[C@@H](Cc1ccc(O)c(O)c1)C(=O)O

In the case of `N[C@@H](Cc1ccc(O)c(O)c1)C(=O)N[C@@H](Cc1ccc(O)cc1)C(=O)O` [LD-Tyr TFA salt, Levodopa Tyrosine TFA Salt] (H-[Dopa]-Tyr-OH), the “Physical Stability” value is on record as “Precipitated” in series [1] (LD-Tyr 20%, Arg 0%, TRIS 8.8%, pH 7.94, molar ratio 1:1.20); “Stable” in series [1] (LD-Tyr 30%, Arg 4.5%, TRIS 9.72%, pH 8.00, molar ratio 1:1.20); “Stable” in series [1] (LD-Tyr 37%, Arg 5.8%, TRIS 11.7%, pH 8.12, molar ratio 1:1.32); “Stable” in series [1] (LD-Tyr 44%, Arg 6.8%, TRIS 13.8%, pH 8.02, molar ratio 1:1.20); “Stable” in series [1] (LD-Tyr 44%, Arg 7.33%, TRIS 14.9%, pH 8.08, molar ratio 1:1.30). Further, the “Appearance, 25° C.” value in series [1] (t = 1 days, LD-Tyr 44.0%, CD 0%, L-Arginine 21.4, NaOH 0.60, TRIS 0, pH 8.29) is “Stable”; in series [1] (t = 3 days, LD-Tyr 44.0%, CD 0.75%, L-Arginine 6.27, NaOH 0, TRIS 12.69, pH 8.02), “Stable”; in series [1] (setting [3]), “Stable”; in series [1] (t = 12 days, LD-Tyr 44.0%, CD 0.75%, L-Arginine 21.4, NaOH 0.60, TRIS 0, pH 8.29), “Stable”; in series [1] (t = 14 days, LD-Tyr 44.0%, CD 0.75%, L-Arginine 8.00, NaOH 0, TRIS 15, pH 8.15), “Stable”; in series [1] (setting [4]), “Stable”. In addition, the “Appearance, 25° C.” value is “Stable” in series [1] (t = 24 days, LD-Tyr 44.0%, CD 0.75%, L-Arginine 21.86, NaOH 0.60, TRIS 0, pH 8.57); “Stable” in series [1] (setting [5]); “Stable” in series [1] (setting [6]); “Stable” in series [1] (t = 27 days, LD-Tyr 44.0%, CD 0.75%, L-Arginine 25.72, NaOH 0, TRIS 0, pH 8.43); “Stable” in series [1] (t = 70 days, LD-Tyr 38.0%, CD 0%, L-Arginine 21.90, NaOH 0, TRIS 0, pH 8.43). Also, the “Appearance, Refrigerated (2-8° C.)” value is recorded as “Stable” in series [1] (t = 1 days, LD-Tyr 44.0%, CD 0.75%, L-Arginine 6.27, NaOH 0, TRIS 12.69, pH 8.02); “Stable” in series [1] (t = 7 days, LD-Tyr 44.0%, CD 0.75%, L-Arginine 8.00, NaOH 0, TRIS 15, pH 8.15); “Stable” in series [1] (setting [3]); “Stable” in series [1] (setting [4]); “Stable” in series [1] (setting [5]); “Stable” in series [1] (setting [6]). The “Appearance, Refrigerated (2-8° C.)” value was “precipitated” in series [1] (t = 44 days, LD-Tyr 30.0%, CD 0.75%, L-Arginine 7.00, NaOH 0, TRIS 10.5, pH 8.23); “Stable” in series [1] (t = 50 days, LD-Tyr 30.0%, CD 0.75%, L-Arginine 18.10, NaOH 0, TRIS 0, pH 8.36); “Stable” in series [1] (t = 56 days, LD-Tyr 44.0%, CD 0.75%, L-Arginine 21.86, NaOH 0.60, TRIS 0, pH 8.57); “Stable” in series [1] (t = 70 days, LD-Tyr 44.0%, CD 0.75%, L-Arginine 25.72, NaOH 0, TRIS 0, pH 8.43). The “Analytical stability result (HPLC), t = 0” value in series [2] stood at 327.05.

On to `N[C@@H](CSC[C@H](NC(=O)[C@@H](N)Cc1ccc(O)c(O)c1)C(=O)O)C(=O)O` (single isomer, unassigned; peak 2) [LD-LA2 TFA salt, Levodopa Lanthionine Peak 2 TFA Salt], for which the “mean permeability compared with the other compounds (in words)” value in the series with Caco-2 cells was “highest mean permeability”.
